The source of these data is patent publication EP4781984A1 (Beyang Therapeutics Co., Ltd., priority 2023, dated 2025).

Converted amounts (≈) assume the structure as drawn.

The target in one data set is T1, EGFR (Homo sapiens, UniProt P00533).
T1 construct: purchased Carna 08-115
The data set is described as follows: Kinase inhibitory activity, Mobility Shift Assay (EGFR). In kind it is biochemical. The procedure: (§1) Assay for Inhibitory Activity of Compounds Against VEGFR and EGFR Kinases
(§2) This assay directly monitors the inhibitory activity of compounds on kinase phosphorylation by measuring non-phosphorylated and phosphorylated substrates in the kinase reaction using Mobility Shift Assays/IMAP™ analysis. Table 2. Reagents and Instruments
(§3) Kinase and DTT were added to 1X kinase buffer to form a 2.5X kinase solution; 10 µL of the 2.5X kinase solution was transferred to a 384-well reaction plate, and 1X kinase buffer was added to the negative control wells. The plate was incubated at room temperature for 10 minutes; FAM-labeled peptide, MgCl2, ATP, and other reagents were added to 1X kinase buffer to form a 2.5X substrate solution; 10 µL of the above 2.5X substrate solution was transferred to the 384-well reaction plate; the plate was incubated at 28°C for varying times, and then 25 µL of stop solution was added to the 384-well reaction plate to terminate the reaction. Conversion rate data were read on a CaliperEZ Reader II. […] IC50 values were fitted using XLFit excel add-in version 5.4.0.8. Y = Bottom + (Top−Bottom)/(1 + […]) [formula]
(§4) X is the log value of compound concentration, Y is the inhibition rate (% inhibition).

The target of a further data set is T2, VEGFR2 (Homo sapiens, UniProt P35968).
T2 construct: purchased Carna 08-191
T2 sequence (P35968 20-1356): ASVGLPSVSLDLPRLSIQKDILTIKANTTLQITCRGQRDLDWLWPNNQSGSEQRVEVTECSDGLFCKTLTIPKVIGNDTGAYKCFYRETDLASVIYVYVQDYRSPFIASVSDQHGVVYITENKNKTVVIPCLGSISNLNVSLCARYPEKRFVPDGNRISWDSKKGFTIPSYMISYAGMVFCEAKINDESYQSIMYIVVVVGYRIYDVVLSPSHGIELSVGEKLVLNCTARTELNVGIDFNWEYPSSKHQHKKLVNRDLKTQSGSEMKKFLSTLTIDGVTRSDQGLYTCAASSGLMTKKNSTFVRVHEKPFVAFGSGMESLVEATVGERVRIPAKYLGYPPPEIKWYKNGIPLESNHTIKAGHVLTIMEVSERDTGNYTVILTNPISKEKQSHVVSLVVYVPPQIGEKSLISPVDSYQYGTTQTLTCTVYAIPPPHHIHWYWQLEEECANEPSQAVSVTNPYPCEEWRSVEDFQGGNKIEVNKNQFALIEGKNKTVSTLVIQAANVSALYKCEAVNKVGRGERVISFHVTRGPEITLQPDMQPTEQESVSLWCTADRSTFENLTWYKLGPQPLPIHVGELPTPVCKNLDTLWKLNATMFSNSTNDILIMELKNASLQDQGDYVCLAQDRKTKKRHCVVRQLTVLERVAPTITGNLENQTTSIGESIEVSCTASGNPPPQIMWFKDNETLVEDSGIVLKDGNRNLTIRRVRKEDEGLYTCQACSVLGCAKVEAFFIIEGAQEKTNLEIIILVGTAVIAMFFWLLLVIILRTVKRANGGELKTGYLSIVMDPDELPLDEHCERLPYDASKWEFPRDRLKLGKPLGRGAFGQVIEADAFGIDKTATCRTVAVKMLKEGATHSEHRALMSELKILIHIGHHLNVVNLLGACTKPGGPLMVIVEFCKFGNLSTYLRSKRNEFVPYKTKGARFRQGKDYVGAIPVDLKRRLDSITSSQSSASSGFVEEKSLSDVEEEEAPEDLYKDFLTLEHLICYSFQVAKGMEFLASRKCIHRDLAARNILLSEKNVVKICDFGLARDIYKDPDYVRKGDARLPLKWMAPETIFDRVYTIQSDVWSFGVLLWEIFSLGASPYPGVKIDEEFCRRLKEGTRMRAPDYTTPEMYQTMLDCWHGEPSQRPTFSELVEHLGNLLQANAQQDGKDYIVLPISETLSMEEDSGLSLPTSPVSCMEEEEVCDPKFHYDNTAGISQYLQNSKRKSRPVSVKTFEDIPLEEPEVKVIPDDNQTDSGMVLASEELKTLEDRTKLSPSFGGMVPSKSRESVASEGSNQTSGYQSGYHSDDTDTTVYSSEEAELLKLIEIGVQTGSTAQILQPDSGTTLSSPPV
As to the kind of experiment: Kinase inhibitory activity, Mobility Shift Assay (VEGFR2). Type of data set: biochemical. On the procedure: as §1, §2, §3, §4

In another data set the test system is melanin. The data set is described as follows: Compound binding to melanin. In kind it is in vitro ADME. Conditions: cuttlefish (Sepia officinalis), melanin suspension (1 mg/mL), percentage of free drug (not bound to melanin), 2 µM compound, melanin 1 mg/mL in PBS pH 7.4, 37°C. An excerpt:
Detection of Compound Binding to Melanin
Pigmented ocular tissues contain melanin within intracellular melanosomes. Drugs bind to melanin to varying degrees, from no binding to extensive binding. Therefore, melanin binding is an important characteristic affecting ocular drug delivery and biodistribution. The ability of compounds to bind to melanin must be considered in ocular drug development.
Melanin derived from cuttlefish (Sepia officinalis) melanin was purchased from Sigma Aldrich (St Louis, MO).
First, prepare a 1 mg/mL melanin suspension in PBS (pH 7.4). As a matrix washing step, suspended particles were centrifuged at 3000 rpm for 5 minutes. The resulting pellet was resuspended in fresh PBS buffer, heated to 37°C with continuous shaking, and incubated for 1 hour. Accurately pipette 2 microliters of test compound stock solution (0.1 mM) into 98 microliters of melanin suspension (1 mg/mL), resulting in a final incubation concentration of 2 µM. Similarly, accurately pipette 2 microliters of stock solution (0.1 mM) into 98 microliters of PBS buffer (containing 0.1% BSA) as a blank control sample. Samples were incubated at 37°C for 2 hours on a shaker (80-90 rpm). Then centrifuged at room temperature. 50 microliters of supernatant was aspirated and added to 50 microliters of precipitation agent (containing internal standard). All samples above were subjected to protein precipitation, centrifuged, the supernatant was taken, diluted with water (if necessary), and then injected for analysis. Simultaneously, high-binding compounds Sunitinib and chloroquine, and the low-binding compound celecoxib were measured as positive controls. An LC-MS/MS analytical method for determining compound concentration was established. The ratio of analyte/internal standard peak areas (Aanalyte/AIS) measured in the samples, calibrated by the dilution factor, was used as the surrogate concentration for data processing. The binding rate of the compound to melanin (Fb) is calculated by the formula: Fb = 100−(Ctest)/(Ccontrol) × 100% [formula]
Ctest is the drug concentration of the compound in the melanin incubation sample or the peak area ratio of the test compound to the internal standard. Ccontrol is the drug concentration of the compound in the blank control sample or the peak area ratio of the test compound to the internal standard. Percentage of free drug (Fu%) = 100 - Fb The binding rates of the compounds of the present invention to melanin are shown in the table below: Table 11. Binding Rate of Compounds to Melanin

Data set [1] is described as follows: Thermodynamic solubility test. The note with it: buffer solution, aqueous buffer, thermodynamic from solid; thermodynamic solubility, room temperature, 8 hours shaking; buffers pH 2.0, 6.5, 7.4 used, pH of the tabulated value not given. Type of data set: physicochemical. The procedure:
Solubility Test of Compounds
Table 9. Reagents and Instruments
After sonication for 10 minutes, they were fixed on a shaker and shaken at room temperature for 8 hours. After shaking, they were sonicated for 10 minutes and centrifuged at 13000 rpm for 15 minutes. 0.1 mL of supernatant was aspirated into a new tube, rinsed with 5 mL of buffer by shaking, and the liquid was discarded. 0.5 mL of supernatant was transferred again to a new tube, centrifuged at 13000 rpm for 15 minutes, and the supernatant was taken (diluted with water if necessary) for LC-MS injection analysis. Sample concentrations were quantified using a 3-5 point calibration curve.

Data set [2] is described as follows: Ophthalmic formulations based on polyethylene glycol series vehicles: composition and state (Example 7). Type of data set: physicochemical. The source says:
In the following ophthalmic formulation preparation examples, "solution" refers to a clear, transparent liquid without visible insoluble matter. "Near-clear solution" refers to a liquid that appears close to a solution upon visual observation but may contain a small amount of insoluble particles or have a slightly opaque color. "Suspension" refers to a liquid that is visibly turbid or opaque. "Gel" refers to a completely or partially gel-like solid.
Example 7: Ophthalmic Formulations Based on Polyethylene Glycol Series Vehicles
According to the formulation composition shown in the tables below, weigh the compound powder, add it to polyethylene glycol 400, and sonicate until dissolved or nearly dissolved (heat to 50°C if necessary). Add this to a Tris-HCl buffer solution containing hydroxypropyl-β-cyclodextrin, poloxamer 188, and gellan gum (or other viscosity modifier), vortex to mix, and prepare into an eye drop formulation.

The mark [3] stands for this setting: Table 13: 1mg/ml, Polyethylene glycol 400 5, Hydroxypropyl-β-cyclodextrin 10, Tris-HCl buffer (pH 8.3) 50mM, Carbomer 0.48, Poloxamer 188 1.
Where [4] appears, read: Table 14: 5mg/ml, Polyethylene glycol 400 10, Hydroxypropyl-β-cyclodextrin 10, Gellan Gum Gelrite 0.3, Poloxamer 188 1, 0.5 M Tris solution 2, 0.1 M Citric acid 1.
[5] abbreviates: Table 15: 10 mg/mL, Polyethylene glycol 400 10, Hydroxypropyl-β-cyclodextrin 10, Gellan Gum Gelrite 0.3, Poloxamer 188 1, Tris solution and Citric acid.
The mark [6] stands for this setting: Table 16: 2 mg/mL, Polyethylene Glycol 400 5, Poloxamer 188 1, Hydroxypropyl-β-cyclodextrin 6, Gellan Gum Gelrite 0.15, Tris-HCl Buffer (pH 6.8) 25mM.

As usually defined, the IC50 is the concentration that gives 50% inhibition. Usually fraction unbound stands for the share of the substance not bound to proteins or other matrix. Read a high fraction unbound as weak binding. One may read the solubility as the concentration that dissolves in the medium under given conditions. A low value points to little dissolved substance.

T1 sequence (P00533 25-1210): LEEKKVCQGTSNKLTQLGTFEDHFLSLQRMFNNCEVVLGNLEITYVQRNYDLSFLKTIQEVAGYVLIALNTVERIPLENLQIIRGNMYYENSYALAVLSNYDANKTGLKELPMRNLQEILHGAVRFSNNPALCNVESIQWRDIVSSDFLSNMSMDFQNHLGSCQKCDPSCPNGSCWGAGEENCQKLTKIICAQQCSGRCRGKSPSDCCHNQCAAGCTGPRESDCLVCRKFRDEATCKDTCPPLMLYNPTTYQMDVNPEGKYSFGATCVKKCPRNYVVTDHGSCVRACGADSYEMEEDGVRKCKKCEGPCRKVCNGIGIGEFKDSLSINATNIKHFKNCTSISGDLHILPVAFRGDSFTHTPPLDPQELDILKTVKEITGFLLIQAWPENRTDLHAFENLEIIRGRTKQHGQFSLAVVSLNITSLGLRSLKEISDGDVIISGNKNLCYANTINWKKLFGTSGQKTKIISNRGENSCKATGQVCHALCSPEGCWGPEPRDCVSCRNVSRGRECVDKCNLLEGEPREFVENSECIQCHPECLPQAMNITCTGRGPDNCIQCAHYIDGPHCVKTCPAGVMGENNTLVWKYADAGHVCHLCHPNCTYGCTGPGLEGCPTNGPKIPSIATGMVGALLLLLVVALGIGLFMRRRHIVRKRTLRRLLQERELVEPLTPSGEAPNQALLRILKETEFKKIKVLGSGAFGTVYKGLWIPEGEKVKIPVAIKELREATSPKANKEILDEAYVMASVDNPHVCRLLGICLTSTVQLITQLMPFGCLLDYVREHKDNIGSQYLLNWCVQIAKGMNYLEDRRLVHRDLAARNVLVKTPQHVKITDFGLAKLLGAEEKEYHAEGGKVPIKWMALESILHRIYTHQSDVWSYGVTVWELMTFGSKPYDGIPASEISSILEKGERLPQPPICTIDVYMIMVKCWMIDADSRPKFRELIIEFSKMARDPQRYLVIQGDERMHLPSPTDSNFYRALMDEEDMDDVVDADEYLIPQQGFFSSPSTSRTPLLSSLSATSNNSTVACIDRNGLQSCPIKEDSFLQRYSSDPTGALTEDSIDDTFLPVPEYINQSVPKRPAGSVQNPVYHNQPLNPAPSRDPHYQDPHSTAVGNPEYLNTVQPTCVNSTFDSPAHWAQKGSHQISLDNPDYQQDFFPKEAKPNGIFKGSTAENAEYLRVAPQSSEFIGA

Regarding `CCNC(=O)c1cccc(F)c1Sc1ccc2c(/C=C/c3cc(CN4CCCC4)ccn3)n[nH]c2c1` [Compound I-114], the IC50 on EGFR was > 60 µM; at VEGFR2, > 100 nM.

Regarding `O=C(NC1CC1)c1ccccc1Sc1ccc2c(/C=C/c3cc(CCCN4CCCC4)ccn3)n[nH]c2c1` [Compound I-120], the results for the IC50 on EGFR and at VEGFR2 were > 60 µM and ≤ 1 nM, respectively.

As to `CNC(=O)c1ccccc1Sc1ccc2c(/C=C/c3ccnn3CCN3CCCC3)n[nH]c2c1` [Compound I-25], in the data set with melanin, the fraction unbound at 2 h, 2 µM was > 0.05. Moreover, on VEGFR2, the IC50 is > 100 nM. The solubility at 8 h in data set [1] was determined as 216 µg/mL (≈ 457 µM).

Take `O=C(NC1CC1)c1cc(F)ccc1Sc1ccc2c(/C=C/c3cc(CCCN4CCCC4)ccn3)n[nH]c2c1` [Compound I-119]: the IC50 is > 60 µM at EGFR and ≤ 1 nM on VEGFR2.

`CCN(CC)Cc1ccc(/C=C/c2n[nH]c3cc(Sc4ccc(F)cc4C(=O)NC4CC4)ccc23)nc1` [Compound I-84, N-cyclopropyl-5-fluoro-2-({3-[(E)-2-{5-[(diethylamino)methyl]pyridin-2-yl}ethenyl]-1H-indazol-6-yl}thio)benzamide]: the fraction unbound at 2 h, 2 µM in the data set on melanin is > 0.05. Besides, the “State Description: pH” value in data set [2] (setting [3]) is reported as ~5; in data set [2] (setting [4]), ~7.5; in data set [2] (setting [5]), ~5.5; in data set [2] (setting [6]), ~7. The “State Description: state” value in data set [2] (setting [3]) is given as “homogeneous suspension”; in data set [2] (setting [4]), “near-clear solution”; in data set [2] (setting [5]), “gel”; in data set [2] (setting [6]) it was “solution”. The “Osmolality (mOsm/kg)” value in data set [2] (setting [6]) was ~300 mOsm/kg. Also, in data set [1], the solubility at 8 h stood at 599 µg/mL (≈ 1160 µM).

As to `CCNC(=O)c1cccc(F)c1Sc1ccc2c(/C=C/c3ccc(CN4CCCC4)cn3)n[nH]c2c1` [Compound I-75, N-ethyl-3-fluoro-2-({3-[(E)-2-{5-[(pyrrolidin-1-yl)methyl]pyridin-2-yl}ethenyl]-1H-indazol-6-yl}sulfanyl)benzamide], in data set [2] (setting [6]), the “State Description: pH” value is recorded as ~7 and the “State Description: state” value was “solution”.

Take `O=C(NC1CC1)c1cc(F)ccc1Sc1ccc2c(/C=C/c3cnn(CCCN4CCCC4)c3)n[nH]c2c1` [Compound I-46]: the IC50 on VEGFR2 was ≤ 1 nM.

For `CCNC(=O)c1ccc(Sc2ccc3c(/C=C/c4ccc(CN(CC)CC)cn4)n[nH]c3c2)cc1F` [Compound I-87, 4-({3-[(E)-2-{5-[(diethylamino)methyl]pyridin-2-yl}ethenyl]-1H-indazol-6-yl}sulfanyl)-N-ethyl-2-fluorobenzamide], the half-maximal inhibitory concentration (IC50) was > 60 µM on EGFR and > 100 nM at VEGFR2.

Consider `CCNC(=O)c1ccc(F)cc1Sc1ccc2c(/C=C/c3cnn(CCCN4CCCC4)c3)n[nH]c2c1` [Compound I-103, N-ethyl-4-fluoro-2-({3-[(E)-2-{1-[3-(pyrrolidin-1-yl)propyl]-1H-pyrazol-4-yl}ethenyl]-1H-indazol-6-yl}sulfanyl)benzamide], for which, at VEGFR2, the half-maximal inhibitory concentration (IC50) is ≤ 1 nM.

Turning to `O=C(NC1CC1)c1ccccc1Nc1ccc2c(/C=C/c3ccc(CN4CCCC4)cn3)n[nH]c2c1` [Compound I-82, N-cyclopropyl-2-({3-[(E)-2-{5-[(pyrrolidin-1-yl)methyl]pyridin-2-yl}ethenyl]-1H-indazol-6-yl}amino)benzamide], the free fraction (fraction unbound) at 2 h, 2 µM with melanin fell in the range of 0.01 to 0.05. For the same compound, the IC50 on VEGFR2 is ≤ 1 nM. In data set [1], this compound returned a solubility at 8 h of 294 µg/mL (≈ 614 µM).

For the compound `CCNC(=O)c1ccccc1Sc1ccc2c(/C=C/c3cnn(CCCN4CCCC4)c3)n[nH]c2c1` [Compound I-101], the IC50 was 6 to 60 µM on EGFR and ≤ 1 nM on VEGFR2.

With `O=C(NC1CC1)c1ccc(F)cc1Sc1ccc2c(/C=C/c3ccc(CN4CCCC4)cn3)n[nH]c2c1` [Compound I-79], the fraction unbound at 2 h, 2 µM in the data set with melanin was > 0.05. Besides, on VEGFR2, the IC50 was ≤ 1 nM. The compound also registered a solubility at 8 h in data set [1] of 80.4 µg/mL (≈ 157 µM).

Take `O=C(NC1CC1)c1ccccc1Sc1ccc2c(/C=C/c3cccc(CCN4CCCC4)n3)n[nH]c2c1` [Compound I-134]: the results for the IC50 on EGFR and at VEGFR2 were > 60 µM and 1 to 10 nM, respectively.

In the case of `CCNC(=O)c1cccc(F)c1Sc1ccc2c(/C=C/c3cccc(CN4CCCC4)n3)n[nH]c2c1` [Compound I-113, N-ethyl-3-fluoro-2-({3-[(E)-2-{6-[(pyrrolidin-1-yl)methyl]pyridin-2-yl}ethenyl]-1H-indazol-6-yl}sulfanyl)benzamide], at VEGFR2, the IC50 is > 100 nM.

As for `CCNC(=O)c1ccccc1Sc1ccc2c(/C=C/c3ccc(CN(CC)CC)cn3)n[nH]c2c1` [Compound I-86, 2-({3-[(E)-2-{5-[(diethylamino)methyl]pyridin-2-yl}ethenyl]-1H-indazol-6-yl}thio)-N-ethylbenzamide], the fraction unbound at 2 h, 2 µM with melanin lay within 0.01 to 0.05. In addition, in data set [2] (setting [5]), the “State Description: pH” value is ~5.5 and the “State Description: state” value was “near-clear solution”. In data set [2] (setting [6]), the “Osmolality (mOsm/kg)” value was ~300 mOsm/kg, the “State Description: pH” value is listed as ~7 and the “State Description: state” value is recorded as “solution”. Further, the solubility at 8 h in data set [1] amounted to 1130 µg/mL (≈ 2320 µM).

Regarding `CCN(CC)CCc1ccc(/C=C/c2n[nH]c3cc(Sc4ccc(F)cc4C(=O)NC4CC4)ccc23)nc1` [Compound I-109], in the data set on melanin, the fraction unbound at 2 h, 2 µM is > 0.05. Besides, the concentration for half-maximal inhibition (IC50) at VEGFR2 was ≤ 1 nM. Further, the solubility at 8 h in data set [1] stood at 1950 µg/mL (≈ 3680 µM).

Consider `CCN(CC)CCc1ccc(/C=C/c2n[nH]c3cc(Sc4cc(F)ccc4C(=O)NC4CC4)ccc23)nc1` [Compound I-108], for which the IC50 on VEGFR2 was ≤ 1 nM.

As to `CNC(=O)c1cccc(F)c1Sc1ccc2c(/C=C/c3ccc(CN4CCCC4)cn3)n[nH]c2c1` [Compound I-68, 3-fluoro-N-methyl-2-({3-[(E)-2-{5-[(pyrrolidin-1-yl)methyl]pyridin-2-yl}ethenyl]-1H-indazol-6-yl}sulfanyl)benzamide], the 50% inhibitory concentration (IC50) on EGFR was 6 to 60 µM; on VEGFR2, 1 to 10 nM.

With `CCN(CC)Cc1ccc(/C=C/c2n[nH]c3cc(Sc4c(F)cccc4C(=O)NC4CC4)ccc23)nc1` [Compound I-85], the IC50 at EGFR is 6 to 60 µM; at VEGFR2, 1 to 10 nM.
